pEC50: −log10 of the molar value. Active and inactive are the calls of the source. The rule behind the calls is not given here.
Experiments:
[1] = Cardiotoxicity in ICR mouse assessed as upregulation of Myh6 mRNA expression in heart at 1 mg/kg, po administered as single dose by qRT-PCR analysis; format: toxicity, organism-based; conditions: in vivo
[2] = Toxicity in ICR mouse assessed as decrease in serum total LDL-cholesterol level at 1 mg/kg, po administered as single dose measured after 24 hrs by automated biochemical analyzer; format: organism-based; design: scale not given: the % may be the effect or the level left; conditions: in vivo
[3] = Toxicity in ICR mouse assessed as decrease in serum total cholesterol level at 1 mg/kg, po administered as single dose measured after 24 hrs by automated biochemical analyzer; format: organism-based; design: scale not given: the % may be the effect or the level left; conditions: in vivo
[4] = Cmax in ICR mouse serum at 10 mg/kg, po measured after 24 hrs by LC-MS/MS analysis; format: ADME, organism-based; design: dose 10 mg/kg, time 24 hrs, route po
[5] = Half life in ICR mouse at 30 mg/kg, po measured after 24 hrs by LC-MS/MS analysis; format: ADME, organism-based; conditions: in vivo
Mus musculus [6] = experiment: Anti-NASH activity in high-fat diet and CCl4-induced nonalcoholic steatohepatitis C57BL/6J mouse assessed as decrease in liver steatosis at 3 to 10 mg/kg, po once daily and measured after 48 hrs by hematoxylin and eosin staining based microscopic analysis; format: functional, organism-based; conditions: dose 3-10 mg/kg
[7] = Hepatotoxicity in ICR mouse assessed as upregulation of THRSP mRNA expression in liver by measuring fold change at 3 to 10 mg/kg, po administered as single dose by qRT-PCR analysis; format: toxicity, organism-based; conditions: in vivo, dose 3-10 mg/kg
[8] = Metabolic stability in dog liver microsomes assessed as half life; format: ADME, Canis lupus familiaris, Microsome
[9] = target: T1, Thyroid hormone receptor beta (Homo sapiens, UniProt P10828); experiment: Agonist activity at human THRbeta transfected in Huh7 cells co-transfected with luciferase reporter plasmid assessed as […] luciferase activity incubated for 16 hrs by Steady-Glo luciferase assay; format: cell-based, Huh-7
T1 sequence (P10828 whole entry): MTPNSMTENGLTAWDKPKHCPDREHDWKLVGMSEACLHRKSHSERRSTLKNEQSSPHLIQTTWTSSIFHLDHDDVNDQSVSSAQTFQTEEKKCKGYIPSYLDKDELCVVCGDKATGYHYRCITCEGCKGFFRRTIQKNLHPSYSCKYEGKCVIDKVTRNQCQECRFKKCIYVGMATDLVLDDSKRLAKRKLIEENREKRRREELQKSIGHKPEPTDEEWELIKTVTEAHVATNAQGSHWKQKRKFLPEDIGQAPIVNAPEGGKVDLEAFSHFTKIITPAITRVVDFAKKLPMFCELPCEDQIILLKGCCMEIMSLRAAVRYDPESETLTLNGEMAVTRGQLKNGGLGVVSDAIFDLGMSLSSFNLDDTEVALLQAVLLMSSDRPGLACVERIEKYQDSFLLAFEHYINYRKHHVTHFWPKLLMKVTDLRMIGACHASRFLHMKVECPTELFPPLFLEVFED

Mus musculus [10] = experiment: Anti-NASH activity in high-fat diet and CCl4-induced nonalcoholic steatohepatitis C57BL/6J mouse assessed as decrease in inflammation score at 3 to 10 mg/kg, po once daily and measured after 48 hrs by hematoxylin and eosin staining based microscopic analysis; format: functional, organism-based; conditions: dose 3-10 mg/kg
[11] = Metabolic stability in mouse liver microsomes assessed as half life; format: ADME, Microsome
Mus musculus [12] = experiment: Anti-NASH activity in high-fat diet and CCl4-induced nonalcoholic steatohepatitis C57BL/6J mouse assessed as decrease in serum LDL-cholesterol level administered orally once daily for 6 weeks; format: functional, organism-based; conditions: dose 3-10 mg/kg, route po
[13] = Cmax in ICR mouse at 30 mg/kg, po measured after 24 hrs by LC-MS/MS analysis; format: ADME, organism-based; design: time 24 hrs, dose 30 mg/kg, route po; conditions: in vivo
[14] = Metabolic stability in monkey liver microsomes assessed as half life; format: ADME, Macaca mulatta, Microsome; conditions: rhesus monkey
[15] = Toxicity in ICR mouse assessed as decrease in serum total LDL-cholesterol level at 3 mg/kg, po administered as single dose measured after 24 hrs by automated biochemical analyzer; format: organism-based; design: scale not given: the % may be the effect or the level left; conditions: in vivo
[16] = Tmax in ICR mouse at 30 mg/kg, po measured after 24 hrs by LC-MS/MS analysis; format: ADME, organism-based; conditions: in vivo
[17] = Toxicity in ICR mouse assessed as decrease in serum total LDL-cholesterol level at 10 mg/kg, po administered as single dose measured after 24 hrs by automated biochemical analyzer; format: organism-based; design: scale not given: the % may be the effect or the level left; conditions: in vivo
[18] = Cardiotoxicity in ICR mouse assessed as changes in Myh7 mRNA expression in heart at 3 to 10 mg/kg, po administered as single dose by qRT-PCR analysis; format: toxicity, organism-based; conditions: in vivo, dose 3-10 mg/kg
[19] = Metabolic stability in mouse liver microsomes assessed as intrinsic clearance; format: ADME, Microsome
[20] = Cardiotoxicity in ICR mouse assessed as changes in Myh6/Myh7 ratio in heart at 3 to 10 mg/kg, po administered as single dose by qRT-PCR analysis; format: toxicity, organism-based; conditions: in vivo, dose 3-10 mg/kg
[21] = Cmax in ICR mouse liver at 10 mg/kg, po measured after 24 hrs by LC-MS/MS analysis; format: ADME, organism-based; design: dose 10 mg/kg, time 24 hrs, route po
[22] = Tmax in ICR mouse serum at 10 mg/kg, po measured after 24 hrs by LC-MS/MS analysis; format: ADME, organism-based
[23] = AUClast in ICR mouse at 30 mg/kg, po measured after 24 hrs by LC-MS/MS analysis; format: ADME, organism-based; design: dose 30 mg/kg, time 24 hrs, route po; conditions: in vivo
[24] = Metabolic stability in monkey liver microsomes assessed as intrinsic clearance; format: ADME, Macaca mulatta, Microsome; conditions: rhesus monkey
[25] = Half life in ICR mouse serum at 10 mg/kg, po measured after 24 hrs by LC-MS/MS analysis; format: ADME, organism-based
[26] = Metabolic stability in rat liver microsomes assessed as half life; format: ADME, Microsome
[27] = Tmax in ICR mouse liver at 10 mg/kg, po measured after 24 hrs by LC-MS/MS analysis; format: ADME, organism-based
[28] = Metabolic stability in human liver microsomes assessed as half life; format: ADME, Microsome
[29] = Toxicity in ICR mouse assessed as decrease in serum total cholesterol level at 3 mg/kg, po administered as single dose measured after 24 hrs by automated biochemical analyzer; format: organism-based; design: scale not given: the % may be the effect or the level left; conditions: in vivo
[30] = Metabolic stability in rat liver microsomes assessed as intrinsic clearance; format: ADME, Microsome
[31] = Toxicity in ICR mouse assessed as decrease in serum total cholesterol level at 30 mg/kg, po administered as single dose measured after 24 hrs by automated biochemical analyzer; format: organism-based; design: scale not given: the % may be the effect or the level left; conditions: in vivo
[32] = Toxicity in ICR mouse assessed as decrease in serum total cholesterol level at 10 mg/kg, po administered as single dose measured after 24 hrs by automated biochemical analyzer; format: organism-based; design: scale not given: the % may be the effect or the level left; conditions: in vivo
[33] = Cardiotoxicity in ICR mouse assessed as changes in Myh6 mRNA expression in heart at 3 to 10 mg/kg, po administered as single dose by qRT-PCR analysis; format: toxicity, organism-based; conditions: in vivo, dose 3-10 mg/kg
[34] = Hepatotoxicity in ICR mouse assessed as upregulation of Me1 mRNA expression in liver by measuring fold change at 3 to 10 mg/kg, po administered as single dose by qRT-PCR analysis; format: toxicity, organism-based; conditions: in vivo, dose 3-10 mg/kg
Mus musculus [35] = experiment: Anti-NASH activity in high-fat diet and CCl4-induced nonalcoholic steatohepatitis C57BL/6J mouse assessed as reduction in col-1A1 gene expression in liver at 3 to 10 mg/kg, po once daily and measured after 48 hrs […]; format: functional, organism-based; conditions: dose 3-10 mg/kg
Mus musculus [36] = experiment: Anti-NASH activity in high-fat diet and CCl4-induced nonalcoholic steatohepatitis C57BL/6J mouse assessed as decrease in serum total cholesterol level administered orally once daily for 6 weeks; format: functional, organism-based; conditions: dose 3-10 mg/kg, route po
Mus musculus [37] = experiment: Anti-NASH activity in high-fat diet and CCl4-induced nonalcoholic steatohepatitis C57BL/6J mouse assessed as reduction in liver fibrosis area at 3 to 10 mg/kg, po once daily and measured after 48 hrs by sirius red staining based assay; format: functional, organism-based; conditions: dose 3-10 mg/kg
[38] = AUClast in ICR mouse serum at 10 mg/kg, po measured after 24 hrs by LC-MS/MS analysis; format: ADME, organism-based; design: time 24 hrs, dose 10 mg/kg, route po
[39] = Hepatotoxicity in ICR mouse assessed as upregulation of Dio1 mRNA expression in liver by measuring fold change at 3 to 10 mg/kg, po administered as single dose by qRT-PCR analysis; format: toxicity, organism-based; conditions: in vivo, dose 3-10 mg/kg
[40] = Metabolic stability in human liver microsomes assessed as intrinsic clearance; format: ADME, Microsome
Mus musculus [41] = experiment: Anti-NASH activity in high-fat diet and CCl4-induced nonalcoholic steatohepatitis C57BL/6J mouse assessed as decrease in NAFLD activity score at 3 to 10 mg/kg, po once daily and measured after 48 hrs by hematoxylin and eosin staining based microscopic analysis; format: functional, organism-based; conditions: dose 3-10 mg/kg
[42] = target: T2, Thyroid hormone receptor alpha (Homo sapiens, UniProt P10827); experiment: Agonist activity at human THRalpha transfected in Huh7 cells co-transfected with luciferase reporter plasmid assessed as […] luciferase activity incubated for 16 hrs by Steady-Glo luciferase assay; format: cell-based, Huh-7
T2 sequence (P10827 whole entry): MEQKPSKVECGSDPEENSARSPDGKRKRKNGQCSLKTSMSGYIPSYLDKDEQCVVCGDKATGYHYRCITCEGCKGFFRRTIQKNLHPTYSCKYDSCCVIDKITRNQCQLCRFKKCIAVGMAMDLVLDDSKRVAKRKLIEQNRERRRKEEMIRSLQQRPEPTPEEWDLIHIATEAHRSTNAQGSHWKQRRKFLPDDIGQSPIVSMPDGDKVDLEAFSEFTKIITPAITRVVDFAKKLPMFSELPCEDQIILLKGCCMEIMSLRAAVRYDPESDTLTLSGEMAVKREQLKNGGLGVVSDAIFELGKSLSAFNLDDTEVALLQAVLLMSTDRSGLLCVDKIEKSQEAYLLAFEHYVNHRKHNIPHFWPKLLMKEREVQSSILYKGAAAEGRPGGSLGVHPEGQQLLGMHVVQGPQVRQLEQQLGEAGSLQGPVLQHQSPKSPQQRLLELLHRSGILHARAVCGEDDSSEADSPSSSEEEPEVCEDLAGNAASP

[43] = AUClast in ICR mouse liver at 10 mg/kg, po measured after 24 hrs by LC-MS/MS analysis; format: ADME, organism-based; conditions: in vivo

Row | SMILES | Cmax [4] | half-life [5] | fold change (FC) [7] | half-life [11] | Cmax [13] | Activity [15] | Tmax [16] | Activity [17] | Activity [18] | CLH [19] | Activity [20] | Cmax [21] | Tmax [22] | AUC(0-t) at 24 h [23] | half-life [25] | half-life [26] | Tmax [27] | half-life [28] | Activity [29] | CLH [30] | other results
1 | N[C@@H](Cc1cc(I)c(Oc2ccc(O)c(I)c2)c(I)c1)C(=O)O [LIOTHYRONINE] | – | – | – | – | – | – | – | – | – | – | – | – | – | – | – | – | – | – | – | – | Activity [1]: Toxic; Activity [2]: 61.9%; Activity [3]: 44%
2 | CC(C)n1c(=O)ccc2c1ccn2-c1c(Cl)cc(-n2nc(C#N)c(=O)[nH]c2=O)cc1Cl | 1200 ng/mL | 8.7 h | 16 | 4.55 h | 2830 ng/mL | 53.6% | 8 h | 62.1% | Non-Toxic | 7.7 mL/min/g | Non-Toxic | 99000 ng/g | 6 h | 37500 ng·h/mL | 4.4 h | 3.48 h | 4 h | 2.98 h | 30.7% | 10 mL/min/g | Activity (Mus musculus [6]): Active; half-life [8]: 0.25 h; pEC50 [9]: 7.52; Activity (Mus musculus [10]): Active; Activity (Mus musculus [12]): Dose-Dependent Effect; half-life [14]: 4.38 h; CLH [24]: 8 mL/min/g; Activity [31]: 33%; Activity [32]: 33.7%; Activity [33]: Non-Toxic; fold change (FC) [34]: 3; Activity (Mus musculus [35]): Active; Activity (Mus musculus [36]): Dose-Dependent Effect; Activity (Mus musculus [37]): Active; AUC(0-t) at 24 h [38]: 12100 ng·h/mL; fold change (FC) [39]: 19; CLH [40]: 11.7 mL/min/g; Activity (Mus musculus [41]): Active; pEC50 [42]: 6.66
3 | CC(C)c1cc(Oc2c(Cl)cc(-n3nc(C#N)c(=O)[nH]c3=O)cc2Cl)n[nH]c1=O [RESMETIROM] | 5710 ng/mL | 16.7 h | 10 | 3.88 h | 12100 ng/mL | 39.3% | 6 h | 39.8% | Non-Toxic | 9 mL/min/g | Non-Toxic | 24300 ng/g | 2.7 h | 168000 ng·h/mL | 9.1 h | 4.08 h | 4 h | 1.32 h | 27.2% | 8.6 mL/min/g | AUClast [43]: 349501 ng·h/g; Activity [31]: 20.4%; Activity [32]: 36.9%; Activity [33]: Non-Toxic; fold change (FC) [34]: 1.8; AUC(0-t) at 24 h [38]: 57100 ng·h/mL; fold change (FC) [39]: 12; CLH [40]: 26.5 mL/min/g

Source: ChEMBL document CHEMBL5247640 (J Med Chem, 2023)
